Here are results for 5 compounds from patent US20060074083A1, “Cyclic and acyclic propenones for treating CNS disorders” (MERZ PHARMA GMBH & CO. KGAA, priority 2004, published 2006).

Each structure is given as a SMILES string.

As usually defined, the melting point is the temperature of the solid-liquid transition. In turn, `COc1ccc(/C=C/C(=O)C23CC4CC(CC(C4)C2)C3)cc1C` [Example 10, 1-Adamantan-1-yl-3-(4-methoxy-3-methyl-phenyl)-propenone] yielded a melting point of 138 to 140 °C. Next, `O=C(/C=C/c1cnc2ccccc2c1)C1CC1` [Example 5, 1-Cyclopropyl-3-quinolin-3-yl-propenone]: 101 to 102 °C; `COc1cc(/C=C/C(=O)C23CC4CC(CC(C4)C2)C3)cc(OC)c1` [Example 4, 1-Adamantan-1-yl-3-(3,5-dimethoxy-phenyl)-propenone]: 118 to 119 °C. The same measure for `O=C(/C=C/c1ccc2c(c1)OCCO2)C12CC3CC(CC(C3)C1)C2` [Example 11, 1-Adamantan-1-yl-3-(2,3-dihydrobenzo[1,4]dioxin-6-yl)-propenone]: 125 to 127 °C; for `O=C(/C=C/c1cnc2ccccc2c1)C12CC3CC(CC(C3)C1)C2` [Example 7, 1-Adamantan-1-yl-3-quinolin-3-yl-propenone]: 169 to 171 °C.
